Assays:
[1] = biological target: T1, elastase of the abdominal salivary gland (serine protease) (Sus scrofa, UniProt P00772); assay: In tubo antielastase test, elastin connected with Congo red; format: biochemical
Protocol: (§1) The in tubo tests are carried out with an elastase of the abdominal salivary gland (serine protease) using two types of substrate: a synthetic color-forming (chromogenic) substrate and a natural substrate consisting of elastin connected with Congo red.
(§2) Incubation lasts 30 minutes at room temperature and coloration is measured at 410 nm and 520 nm.
(§3) The inhibition test standard tested for comparison is 1 antitrypsin.

[2] = biological target: T1, elastase of the abdominal salivary gland (serine protease); assay: In tubo antielastase test, synthetic chromogenic substrate; format: biochemical
Protocol: as §1, §2, §3

[3] = tested on: singlet oxygen on type I collagen; assay: Anti-singlet oxygen effect on type I collagen (viscosity, riboflavin + UV-A)
Description: Collagen is a dermal glycoprotein which is very sensitive to the activity of the reactive form of oxygen (or FRO). It was shown that singlet oxygen (O2^1) produces troublesome crosslinkings among the proteins.
The principle of this test is based on measurement of the viscosity of an aqueous solution of type I collagen in the presence of a photochemical O2^1-evolving system.
O2^1, which is produced by riboflavin in the presence of UV-A, causes the collagen to gel in the presence of glucose which is reflected in an increase in viscosity. This effect is inhibited by the molecules which expose O2^1, such as thiourea or aminoguanidine for example.
Viscosity is evaluated by measurement of the throughflow time through the capillary of a “Cannon Fenske” viscosimeter.

[4] = tested on: B16 melanocytes; assay: In vitro melanogenesis inhibition test on B16 melanocytes; format: cell-based; conditions: 0.3% dose
Protocol: In Vitro Melanogenesis Inhibition Test on B16 Melanocytes inoculation of the melanocytes into a growth substrate, incubation for three days at 37° C., CO2=5%, introduction of the Lannea coromandelica extracts into a medium which activates melanogenesis, […]
spectrophotometric dosing of the proteins (co-called Bradford method) and the melanin (DO at 475 nm) into the homogenized melanocytes, calculation of an activity index which corresponds to the ratio (protein level/melanin level) for an optimal dose of extract.
It follows that the higher the index (>1), the greater the ability to inhibit melanogensis.

[5] = Anti-DPPH° test (anti-radical effect); conditions: for level of leuco compound formed (in % in relation to the control): average of 2 tests
Description: a) DPPH° Test DPPH (diphenyl picryl hydrazyl) is a stable, free, violet-colored radical which is modified in its leuco compound by the substances that trap the free radicals (=scavenger or bait effect). The result is expressed in leuco compound levels which are formed in the presence of the active agent (in % in relation to the control with no active principle).

[6] = Anti-HO° test with deoxyribose (Fenton reaction) with EDTA; conditions: for percentage inhibition of the hydroxylation rate: average of 2 tests
Protocol: (§4) Anti-HO°-Test with Deoxyribose (Fenton Reaction) These tests evaluate the ability of an active substance to eliminate (“bait”) HO° produced by the Fenton reaction (H2O2 in the presence of iron). HO° can be exposed by deoxyribose. Deoxyribose is an essential compound of ADN which is oxidized and then fragmented by HO°. The oxidation product of deoxyribose is exposed by condensation with thiobarbituric acid (measurement of optical density at 532 nm). This test is carried out with and without EDTA in order to determine the ability of the extract to form active complex compounds with iron (“[…] effect”).

[7] = Anti-HO° test with deoxyribose (Fenton reaction) without EDTA; conditions: for percentage inhibition of the hydroxylation rate: average of 2 tests
Protocol: as §4

[8] = Anti-anion superoxide test (hypoxanthine/xanthine oxidase) with luminol; format: biochemical; conditions: for percentage inhibition, test with luminol: average of 2 tests
Description: (§5) *Anti-Anion Superoxide Effect (O2.^−) O2.^− is produced during the oxidizing stress through the introduction of an enzyme, xanthine oxidase (XOD), which degrades the excess hypoxanthine (HX) during an interruption in or disruption of the energy metabolism in living tissue. O2.^− is toxic, particularly because of its ability to form hydrogen peroxide (H2O2)—which in turn forms a source of HO^• through the Fenton reaction—either spontaneously or in the presence of Superoxid-Dismutase (SOD). The biochemical tests are carried out with HX in the presence of XOD and the O2.^− are exposed by luminol or a mixture of luminol and peroxidase, which exposes O2.^− and H2O2, or by a tetrazolium salt (NBT) which forms a red compound evaluated at 540 nm.

[9] = Anti-anion superoxide test (hypoxanthine/xanthine oxidase) with luminol + microperoxidase; format: biochemical; conditions: for percentage inhibition, test with luminol + microperoxidase: average of 2 tests
Description: as §5

[10] = Anti-anion superoxide test (hypoxanthine/xanthine oxidase) with NBT; format: biochemical; conditions: for percentage inhibition, test with NBT: average of 2 tests
Description: as §5

[11] = tested on: tyrosinase; assay: In tubo tyrosinase inhibition test (L-DOPA, dopachromium DO at 475 nm); format: biochemical; conditions: extract concentration producing 50% inhibition of the enzyme activity
Description: In Tubo Tyrosinase Inhibition Test mixing of the L-DOPA with tyrosinase and the Lannea coromandelica extracts to be tested, recording of the DO at 475 nm of the dopachromium, calculation of the kinetics, then the CI50 (extract concentration which produces a 50% inhibition of the enzyme activity).

[12] = tested on: clostridium hystoliticum collagenase; assay: In tubo anticollagenase test (FALGPA substrate); format: biochemical
Protocol: b) In Tubo Anticollagenase Test
The tests are carried out with a clostridium hystoliticum collagenase and a synthetic chromogenic substrate: FALGPA. Incubation lasts 3O minutes at room temperature and optical density is measured at 324 nm. The inhibition test standard tested for comparison is cysteine.
The results are set out in Table X below which emphasizes the anticollagenase activity of the Lannea coromandelica extracts (results in percentage inhibition).

[13] = tested on: human fibroblasts; assay: Anti-UVA cytophotoprotection test on human fibroblasts; format: cell-based; conditions: UV-A 15 J/cm^2
Description: d) Anti-UVA-Cytophotoprotection Test on Human Fibroblasts
This in vitro test evaluates the ability of Lannea coromandelica extracts according to the invention to afford human fibroblasts cytophotoprotection against UV-A.
The UV-As are selected as a study model because they penetrate into the inner skin and introduce an oxidizing stress into the skin which is reflected in particular in a lipoperoxidation of the cytoplasmic membrane. The lipoperoxides formed split up into malonaldialdehydes (MDAs) which are responsible for the crosslinking of numerous biological molecules, such as proteins for example (enzyme inhibition), and nuclein bases (mutagenesis).
Fibroblasts are inoculated into a nutrient medium defined with calf foetus serum. The Lannea coromandelica extract was added 2 to 3 days after inoculation. After incubation for 2 to 3 days at 37° C./CO2=5%, the nutrient medium is replaced by a salt solution and the fibroblasts are exposed to a dose of UV-A (15 J/cm^2).
After the exposure, the MDA level in the salt solution floating on the surface is determined and the protein level in the fibroblasts is measured. The MDA level is determined by reaction to thiobarbituric acid while the protein levels are determined by the Bradford method.

T1 sequence (P00772 27-266): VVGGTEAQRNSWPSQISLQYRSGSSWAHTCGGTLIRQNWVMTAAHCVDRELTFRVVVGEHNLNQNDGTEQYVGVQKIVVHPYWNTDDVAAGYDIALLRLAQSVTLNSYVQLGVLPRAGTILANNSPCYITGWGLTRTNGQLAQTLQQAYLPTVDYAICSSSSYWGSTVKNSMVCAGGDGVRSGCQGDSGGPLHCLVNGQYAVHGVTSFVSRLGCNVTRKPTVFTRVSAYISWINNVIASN

1α antitrypsin: inhibition test standard tested for comparison in the antielastase test
Cl50 antielastase, elastin connected with Congo red [1]: NB: Cl50 in % by wt./vol. for 1α antitrypsin = 0.04% | Cl50 antielastase, synthetic substrate [2]: NB: Cl50 in % by wt./vol. for 1α antitrypsin = 0.04%

N=C(N)NN [Aminoguanidine, aminoguanidine]
Cl50 photoprotection of type I collagen [3]: 0.004 % (wt./vol.) | photoprotective effect on type I collagen, percentage inhibition ([3]; dose 0.005% (wt./vol.)): 57% | photoprotective effect on type I collagen, percentage inhibition ([3]; dose 0.015% (wt./vol.)): 75%

OC[C@H]1O[C@@H](Oc2ccc(O)cc2)[C@H](O)[C@@H](O)[C@@H]1O [Arbutin]
I = activity index on B16 melanocytes (protein level/melanin level) [4]: I = 3.14 (for the 0.3% dose)

O=C1O[C@H]([C@@H](O)CO)C(O)=C1O [Ascorbic acid]
Cl50 anti-DPPH° test [5]: 0.0013 % (wt./vol.) | level of leuco compound formed (in % in relation to the control) ([5]; dose 0.001% (wt./vol.)): 49% | level of leuco compound formed (in % in relation to the control) ([5]; dose 0.01% (wt./vol.)): 75% | Cl50 Fenton reaction with EDTA [6]: 0.26 % (wt./vol.) | percentage inhibition of the hydroxylation rate ([6]; dose 0.1% (wt./vol.)): 45% | percentage inhibition of the hydroxylation rate ([6]; dose 1% (wt./vol.)): 73% | Cl50 Fenton reaction without EDTA [7]: 0.9 % (wt./vol.) | percentage inhibition of the hydroxylation rate ([7]; dose 0.01% (wt./vol.)): 5% | percentage inhibition of the hydroxylation rate ([7]; dose 0.03% (wt./vol.)): 75% | percentage inhibition of the hydroxylation rate ([7]; dose 0.1% (wt./vol.)): 2% | percentage inhibition of the hydroxylation rate ([7]; dose 1% (wt./vol.)): 56% | Cl50 test with luminol [8]: 0.0006 % (wt./vol.) | percentage inhibition, test with luminol ([8]; dose 0.0001% (wt./vol.)): 5% | percentage inhibition, test with luminol ([8]; dose 0.001% (wt./vol.)): 92% | percentage inhibition, test with luminol ([8]; dose 0.01% (wt./vol.)): 100% | Cl50 test with luminol + microperoxidase [9]: 0.0058 % (wt./vol.) | percentage inhibition, test with luminol + microperoxidase ([9]; dose 0.001% (wt./vol.)): 0% | percentage inhibition, test with luminol + microperoxidase ([9]; dose 0.01% (wt./vol.)): 94% | Cl50 test with NBT [10]: 0.5909 % (wt./vol.) | percentage inhibition, test with NBT ([10]; dose 0.01% (wt./vol.)): 15% | percentage inhibition, test with NBT ([10]; dose 0.1% (wt./vol.)): 32% | percentage inhibition, test with NBT ([10]; dose I % (wt./vol.)): 65%

Oc1ccc(O)cc1 [Hydroquinone]
Cl50 in tubo tyrosinase inhibition [11]: Cl50 = 0.025% by wt./vol.

N[C@@H](CS)C(=O)O [cysteine]
Cl50 anticollagenase [12]: NB: Cl50 in % by wt./vol. of cysteine = 2.4%

Vitamin E
MDA level in % in relation to the irradiated control ([13]; 0.0003%): 21% | Proteins in % in relation to the non-irradiated control ([13]; 0.0003%): 97% | MDA level in % in relation to the irradiated control ([13]; 0.001%): 8% | Proteins in % in relation to the non-irradiated control ([13]; 0.001%): 98%

From US20040018259A1, “Use of at least one extract of a plant of the genus lannea in a cosmetic or dermopharmaceutical composition” (priority 1999, published 2004)
